# Experimental data: article PMC4490784, “Compensatory induction of MYC expression by sustained CDK9 inhibition via a BRD4-dependent mechanism” (eLife, 2015)
# What was measured:
# [1] = tested on: Ser2-phosphorylated Pol II in HeLa cells; assay: Immunoblotting of global pSer2 (Pol II CTD) in HeLa cell lysates; format: cell-based, human; conditions: 8 hr
# Description: Inhibition of phosphorylation of both Pol II CTD and SPT5 is expected to block transcriptional elongation, which will effectively decrease the production of labile proteins from short-lived transcripts.
# Figure 3. Induction of MYC mRNA production in response to sustained inhibition of CDK9 by i-CDK9 and the requirement of MYC's natural genomic structure in this process. (A) The indicated tumor cell lines were treated with i-CDK9 (0.5 μM) for 2–16 hr and the MYC mRNA levels, which were divided by those in the DMSO-treated cells and averaged from three independent replicates of DNA microarray analysis, were shown as log2 values. (B) HeLa cells were treated with the indicated concentrations of i-CDK9 for 8 hr and the various proteins in the total cell lysates were detected by immunoblotting as indicated. Quantifications of the levels of MYC protein and Ser2-phosphoryalted Pol II (pSer2) in the lysates were shown above and below the immunoblots, respectively. […] The levels of the indicated proteins were examined by immunoblotting. (G) A HeLa-based cell line containing the stably transfected, doxycycline (Dox)-inducible MYC-F-expressing plasmid driven by the CMV promoter was pretreated with (+) or without (−) Dox prior to incubation with i-CDK9 or DMSO. MYC and MYC-F expressed from the endogenous MYC locus and the transfected plasmid, respectively, were detected by immunoblotting. DOI: http://dx.doi.org/10.7554/eLife.06535.007 Figure 3—figure supplement 1. Biphasic response of MYC mRNA production throughout the course of CDK9 inhibition by i-CDK9. DOI: http://dx.doi.org/10.7554/eLife.06535.008 [drawing 2] Figure 3—Figure supplement 2. […] DOI: http://dx.doi.org/10.7554/eLife.06535.009 [drawing 3] TEXT PRINTED IN THE PICTURE: (B) i-CDK9: Fold increase in MYC protein: 1.0 (i-CDK9 (μM): 0); Fold increase in MYC protein: 1.2 (i-CDK9 (μM): 0.01); Fold increase in MYC protein: 1.7 (i-CDK9 (μM): 0.03); Fold increase in MYC protein: 3.6 (i-CDK9 (μM): 0.1); Fold increase in MYC protein: 5.2 (i-CDK9 (μM): 0.3); Fold increase in MYC protein: 5.5 (i-CDK9 (μM): 1.0) | (C) i-CDK9: Fold increase in MYC protein: 1.0 (0.3 μM i-CDK9 (h): 0); Fold increase in MYC protein: 0.9 (0.3 μM i-CDK9 (h): 1); Fold increase in MYC protein: 1.1 (0.3 μM i-CDK9 (h): 2); Fold increase in MYC protein: 1.2 (0.3 μM i-CDK9 (h): 4); Fold increase in MYC protein: 3.3 (0.3 μM i-CDK9 (h): 8)
# First, the induction of MYC protein level was confirmed in HeLa cells treated with i-CDK9. […] It took 1.0 µM i-CDK9 to cause up to 85% reduction in pSer2. In a separate time-course analysis, the 8-hr incubation with i-CDK9 (0.3 μM) induced the MYC level by 3.3-fold, whereas the same condition reduced the pSer2 level by only 40% (Figure 3C). […]
# [2] = target: JAK1(JH1domain-catalytic) (Homo sapiens, UniProt P23458); assay: biochemical binding or enzymatic assay; set-up: JAK1(JH1domain-catalytic); conditions: Novartis
# Chain of JAK1(JH1domain-catalytic) (P23458 875-1153 limits assumed): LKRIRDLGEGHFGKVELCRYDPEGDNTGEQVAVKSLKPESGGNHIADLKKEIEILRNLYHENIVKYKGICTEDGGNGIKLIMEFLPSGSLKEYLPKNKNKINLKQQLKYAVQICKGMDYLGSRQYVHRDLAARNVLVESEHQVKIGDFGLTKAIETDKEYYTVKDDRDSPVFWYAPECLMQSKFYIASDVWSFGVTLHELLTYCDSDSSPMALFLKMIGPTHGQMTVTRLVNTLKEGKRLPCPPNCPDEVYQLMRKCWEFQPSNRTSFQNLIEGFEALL
# Description: Finally, the selectivity profile of i-CDK9 toward other non-CDK kinases was also assessed using the KINOMEscan platform. […] Except for CLK4, for which no suitable assay was available, the rest of the kinases plus a selected group of others were re-examined for the concentration-dependent effect of i-CDK9 in either functional kinase assays or binding assays. […] Indeed, it has recently been reported that DYRK1A acts as a Pol II CTD Kinase at its target gene promoters ([Di Vona et al., 2015]).
# [3] = tested on: 7SK snRNP in HeLa-based F1C2 cells; assay: CDK9-F co-immunoprecipitation: disruption of 7SK snRNP, formation of BRD4-P-TEFb; format: cell-based, human
# Description: A number of stress-inducing agents/conditions are known to cause the release of P-TEFb from 7SK snRNP, which serves as the principal reservoir of uncommitted P-TEFb activity in the nucleus (reviewed in [Zhou et al., 2012]). […] CDK9-F was stably expressed in the HeLa-based F1C2 cells ([Yang et al., 2001]) that were treated with a wide range of i-CDK9 concentrations for 8 hr.
# Just like the induction of MYC expression (Figure 3B), the disruption of 7SK snRNP and formation of BRD4-P-TEFb were highly sensitive to i-CDK9 and required as little as 0.1 μM of the drug (Figure 4A, compare lane 8 to lane 6). […] In a time course analysis, i-CDK9 (0.3 μM)-induced disruption of 7SK snRNP at a time point (1 hr) that was much earlier than that required to cause about 50% reduction in global pSer2 (8 hr; Figure 4—figure supplement 1).
# All Co-immunoprecipitation experiments were performed in NEs prepared from F1C2 cells that stably express CDK9-F or the parental HeLa cells transfected with the indicated cDNAs. The procedures have been described previously ([Lu et al., 2014]).
smiles,measurement,setting,value
"N[C@H]1CC[C@H](Nc2cc(-c3cccc(NCc4cccc(F)c4)n3)c(Cl)cn2)CC1 [i-CDK9, N2′-(trans-4-aminocyclohexyl)-5′-chloro-N6-(3-fluorobenzyl)-2,4′-bipyridine-2′,6-diamine]",decrease of global pSer2 level,[1]; 0.1 μM,23%
same,reduction in global pSer2,"[1]; 0.3 μM, Figure 4-figure supplement 1",about 50%
same,reduction in pSer2,[1]; 1.0 μM,up to 85%
same,pSer2 in the Pol II CTD and pThr775 in SPT5,[1]; dose-dependent,markedly reduced
same,IC50,[2],> 10 µM
same,time point of disruption of 7SK snRNP,[3]; 0.3 μM,1 h
same,concentration required for disruption of 7SK snRNP and formation of BRD4-P-TEFb,[3]; 8 hr,0.1 µM
